# Source: publication PMC7707092, “Discovery and characterization of ORM‐11372, a novel inhibitor of the sodium‐calcium exchanger with positive inotropic activity” (British Journal of Pharmacology, 2020)
# Read-outs that look alike come from different tables or passages of the source.
# Key:
# [1] = biological target: T1, MAO A (Homo sapiens, UniProt P21397); assay: MAO A inhibition (Table S2); format: biochemical
# T1 sequence (P21397 1-527): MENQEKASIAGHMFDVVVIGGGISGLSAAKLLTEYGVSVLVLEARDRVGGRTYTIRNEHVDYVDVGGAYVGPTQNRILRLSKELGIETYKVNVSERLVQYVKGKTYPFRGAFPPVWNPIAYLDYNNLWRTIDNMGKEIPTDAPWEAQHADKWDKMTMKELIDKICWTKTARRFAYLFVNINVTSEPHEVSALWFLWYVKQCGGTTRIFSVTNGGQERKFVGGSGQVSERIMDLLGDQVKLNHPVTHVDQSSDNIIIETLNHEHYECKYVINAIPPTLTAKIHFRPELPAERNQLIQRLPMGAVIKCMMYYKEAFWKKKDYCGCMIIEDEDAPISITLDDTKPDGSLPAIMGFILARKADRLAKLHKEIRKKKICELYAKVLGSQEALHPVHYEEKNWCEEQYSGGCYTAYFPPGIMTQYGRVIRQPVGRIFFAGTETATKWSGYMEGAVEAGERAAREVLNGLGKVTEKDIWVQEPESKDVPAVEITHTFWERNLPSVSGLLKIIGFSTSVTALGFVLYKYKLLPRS
# [2] = biological target: hNCX1 (Homo sapiens, UniProt P32418); assay: Confirmatory fluorescence assay for hNCX1 inhibition (forward mode, HEK293 cells, Charles River); format: cell-based; conditions: HEK293, forward mode
# Description: A confirmatory hNCX1 inhibition assay was performed in Charles River Laboratories, Cleveland. Briefly, HEK293 cells stably expressing hNCX1 were plated in 384‐well black wall, clear‐bottom microtitre plates and the next day loaded with Fluo‐8 for 30 min at 37°C. A plate was inserted into a FLIPR^TETRA, and a baseline was recorded during a preincubation period where test compound or vehicle in a Na^+‐free HB‐PS containing thapsigargin (6 μM) and […] (30 μM) was added to each well for ~5 min. Next, the NCX1 stimulation period was recorded in which Na^+‐containing HB‐PS (with 2‐μM thapsigargin and 10‐μM FCCP) was added. The experiments were performed at room temperature. The kinetic data generated were reduced for each well to maximum relative fluorescence units (RFU) minus minimum RFU after subtracting bias based on the first sample. The mean of the max–min RFU values during the stimulation period for the 3–4 replicates at each concentration on a plate was then plotted versus concentration and fitted to a Hill equation.
# [3] = biological target: hERG (Homo sapiens, UniProt Q12809); assay: hERG IC50 of Table 1 / Table S2 (method not assigned); format: cell-based; conditions: n=4 assays
# [4] = Solubility; format: physicochemical
# [5] = biological target: T2, MAO B (Homo sapiens, UniProt P27338); assay: MAO B inhibition (Table S2); format: biochemical
# T2 sequence (P27338 1-520): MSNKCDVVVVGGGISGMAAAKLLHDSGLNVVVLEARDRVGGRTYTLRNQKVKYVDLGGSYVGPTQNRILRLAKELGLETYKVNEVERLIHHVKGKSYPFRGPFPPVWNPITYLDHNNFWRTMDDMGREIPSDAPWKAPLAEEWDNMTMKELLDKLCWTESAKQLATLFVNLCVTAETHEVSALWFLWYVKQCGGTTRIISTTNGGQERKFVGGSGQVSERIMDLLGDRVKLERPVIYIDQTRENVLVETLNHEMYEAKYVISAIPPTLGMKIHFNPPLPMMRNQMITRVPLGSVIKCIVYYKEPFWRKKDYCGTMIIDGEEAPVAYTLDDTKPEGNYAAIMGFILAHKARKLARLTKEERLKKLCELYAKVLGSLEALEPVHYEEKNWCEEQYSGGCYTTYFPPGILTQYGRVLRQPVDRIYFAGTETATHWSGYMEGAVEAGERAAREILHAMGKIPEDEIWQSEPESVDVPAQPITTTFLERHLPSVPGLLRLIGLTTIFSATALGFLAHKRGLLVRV
# [6] = test system: L‐type calcium channel; assay: L‐type calcium channel inhibition, fluorescence assay in IMR‐32 cells; format: cell-based, human; conditions: KCl depolarization, n=4 assays, read-out: L‐type Ca^2+ IC50
# Description: CHO cells stably expressing either hERG1a (KV11.1) channels (KCNH2; RRID:CVCL_H512) or human 5‐HT2B receptors were cultured at 37°C in a 5% CO2/95% air atmosphere in the Ham's Nutrient Mixture F‐12 (HAM F‐12) medium supplemented with 10% FBS (heat inactivated), 100 μg·ml^−1 of hygromycin B (Invitrogen), and 100 μg·ml^−1 of geneticin or 100 IU·ml^−1 of penicillin and 100 IU·ml^−1 of streptomycin, 25‐mM HEPES, 500 μg·ml^−1 of geneticin, and 250 μg·ml^−1 of Zeocin®. Adhered cells were detached using either Detachin® solution or trypsin and replated twice a week. HEK 293 (RRID:CVCL_0045) and IMR‐32 cells (CCL‐127; RRID:CVCL_0346) were cultured similarly but maintained instead in DMEM, supplemented with 10% FBS (heat inactivated), 100 IU·ml^−1 of penicillin and 100 IU·ml^−1 of streptomycin, and 25‐mM HEPES, and in the case of the IMR‐32 cell line, with minimum essential medium (MEM) non‐essential amino acids. IMR‐32 cells are derived from a human neuroblastoma and endogenously express L‐type (CaV1.x) calcium channel (Sher, Gotti, Pandiella, Madeddu, & Clementi, 1988).
# Undifferentiated IMR‐32 cells were harvested, centrifuged, and resuspended in a probenecid‐Ringer solution consisting (in mM) 150 NaCl, 3 KCl, 1.2 MgCl2, 1 CaCl2, 20 HEPES, 5 glucose and 2.5 probenecid (pH 7.4 adjusted with NaOH, osmolarity 320–324 mOsm). We added 0.04% Pluronic F‐127 and Fluo‐4 to this solution, and after incubating the cells for 30 min at room temperature, these additives were removed from the probenecid‐Ringer solution by centrifugation and resuspension. The cell suspension was pipetted (250,000 cells in 75 μl per well) into a 96‐well plate, into which the test compound (75 μl per well at […] the final concentration; five concentrations with eight replicates) had already been added. The plate was centrifuged once (5 min, at 287 x g) to ensure that the cells were moved to the bottom of the wells. FLEXstation was then used to measure the increase in intracellular calcium at 37°C, following depolarization, which was induced by the addition (50 μl per well) of a KCl‐Ringer solution containing (in mM) 200 KCl, 20 CaCl2, 1.2 MgCl2, 20 HEPES and 2.5 probenecid respectively (pH adjusted to 7.4 with KOH, with an osmolarity of 320–324 mOsm).
# [7] = Table S2, read-out: hNCX1-HEK IC50
# Chain of hERG (Q12809 whole entry): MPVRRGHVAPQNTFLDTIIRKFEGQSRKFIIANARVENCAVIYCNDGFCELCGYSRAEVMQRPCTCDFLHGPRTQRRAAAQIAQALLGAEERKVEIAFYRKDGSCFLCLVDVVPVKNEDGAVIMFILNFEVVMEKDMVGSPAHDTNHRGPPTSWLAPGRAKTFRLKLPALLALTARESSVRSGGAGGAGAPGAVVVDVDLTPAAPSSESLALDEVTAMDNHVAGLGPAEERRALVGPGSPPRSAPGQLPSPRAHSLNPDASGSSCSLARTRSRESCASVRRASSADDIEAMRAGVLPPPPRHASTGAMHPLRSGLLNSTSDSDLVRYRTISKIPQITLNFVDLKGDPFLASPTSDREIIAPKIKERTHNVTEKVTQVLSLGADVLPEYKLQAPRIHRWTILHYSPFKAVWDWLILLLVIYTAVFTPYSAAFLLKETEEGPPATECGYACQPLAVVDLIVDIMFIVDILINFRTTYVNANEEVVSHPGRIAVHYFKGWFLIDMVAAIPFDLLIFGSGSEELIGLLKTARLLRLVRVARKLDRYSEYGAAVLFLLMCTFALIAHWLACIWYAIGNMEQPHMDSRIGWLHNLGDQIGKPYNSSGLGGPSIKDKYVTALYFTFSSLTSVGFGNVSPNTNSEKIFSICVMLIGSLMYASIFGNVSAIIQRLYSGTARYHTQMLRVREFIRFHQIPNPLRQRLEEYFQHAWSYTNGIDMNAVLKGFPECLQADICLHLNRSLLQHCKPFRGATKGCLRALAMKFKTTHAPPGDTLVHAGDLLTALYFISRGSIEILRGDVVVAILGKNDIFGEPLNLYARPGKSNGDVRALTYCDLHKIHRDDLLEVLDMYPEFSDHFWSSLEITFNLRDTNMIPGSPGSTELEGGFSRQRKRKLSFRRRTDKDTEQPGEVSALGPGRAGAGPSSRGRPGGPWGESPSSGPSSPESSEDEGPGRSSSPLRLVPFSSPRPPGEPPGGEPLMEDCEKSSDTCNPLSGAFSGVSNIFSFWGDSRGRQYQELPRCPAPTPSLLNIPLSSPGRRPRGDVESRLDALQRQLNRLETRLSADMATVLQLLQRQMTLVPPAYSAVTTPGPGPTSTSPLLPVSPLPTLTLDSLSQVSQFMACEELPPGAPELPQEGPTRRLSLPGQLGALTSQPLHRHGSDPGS
compound,measurement,setting,value
"CCOc1ccc(Oc2ccc(OCc3cc(F)ccc3F)cc2)c(N)c1 [SEA0400, reference compound]",IC50,[1],4.34 µM
same,IC50,[2]; [7],2.21 µM
same,IC50,[3],2.8 µM
same,Solubility class,[4]; pH 7.4 phosphate buffer,insoluble
same,solubility,[4]; pH 7.4 phosphate buffer,less than 10 μg·ml^−1
same,Solubility class,"[4]; pH 7.4 phosphate buffer, listed as SEA 0400",Insoluble (insoluble less than 10 µg/ml)
same,IC50,[5],0.176 µM
same,IC50,[6],3.4 µM
Nc1cccc(-c2ccc(CNc3ccc(F)cc3)o2)c1 [ORM‐11372],inhibition at 10 µM,[1]; 10 μM,29%
same,IC50,"[2]; 0.3% DMSO, read-out: IC50 hNCX1 calcium efflux signal",0.142 µM
same,IC50,"[2]; 1% DMSO, read-out: IC50 hNCX1 calcium efflux signal",0.164 µM
same,IC50,[3],10.6 µM
same,solubility,"[4]; 5% glucose solution, saline or isotonic, 5% glucose used for in vivo dosing, read-out: Solubility in 5% glucose solution",5400 µg/mL
same,solubility,"[4]; phosphate buffer, pH 7.4, aqueous buffer, pH 7.4 phosphate buffer, read-out: Solubility",10 to 100 µg/mL
same,solubility,"[4]; phosphate buffer, pH 7.4, aqueous buffer, pH 7.4 phosphate buffer, read-out: Solubility class",10 to 100 µg/mL
same,solubility,"[4]; saline, saline or isotonic, saline used for in vivo dosing, read-out: Solubility in saline",5300 µg/mL
same,inhibition at 10 µM,[5]; 10 μM,77%
same,IC50,[6],6.1 µM
O=C(CN1CCC(O)CC1)Nc1ccc(Oc2ccc3c(c2)CCC(c2ccccc2)O3)nc1 (stereo not drawn) [ORM-10962],MAO A inhibition,[1]; 10 μM,11%
same,IC50,[2]; [7],0.63 µM
same,IC50,[3],3.4 µM
same,Solubility class,[4]; pH 7.4 phosphate buffer,Moderate (moderate solubility between 10-100 µg/ml)
same,MAO B inhibition,[5]; 10 μM,52%
same,IC50,[6],11.4 µM
